Like-named read-outs stand apart in the source and are kept apart here.
Key:
[1] = tested on: HeLa cells; test: Kinetic changes in levels of NO and ROS in HeLa cells, wide-field fluorescence microscopy (Example 3); format: cell-based, Human; details: 1 mM L-arginine; for time after treatment at which DAQ signal (NO) was detectable: 1 μM A23187, FIG. 5A; for NO levels (DAQ signal) / ROS production (FIGS. 5B and 5C): 10-60 min treatment; for NO levels (DAQ signal): 1 μM A23187, 0.2 mM antimycin A, 0.1 mM pyocyanin or combination, FIG. 5A; for ROS production (FIGS. 5B and 5C): 0.2 mM antimycin A, 0.1 mM pyocyanin
Experimental: HeLa cells were cultured and plated as described in Example 1. On the day of the experiment, cells were loaded with 50 μM of DAQ, 1 l-1M of DCFDA and HE for 2 h, 37° C. and induced with different ROS and NO inducers (1 μM of A23187, 0.2 mM of antimycin A, 1 mM of L-arginine, 0.1 mM of pyocyanin or combination of L-arginine and pyocyanin) at 37° C. Samples for fluorescent microscopy were prepared after 10, 20, 30, 45 and 60 min of treatment as described in Example 1 and analyzed using an Olympus wide field fluorescent microscope (set of filters as described in the Table 2).

[2] = ROS-generating system: •OH; cited from earlier work
[3] = ROS-generating system: ONOO−; cited from earlier work
[4] = ROS-generating system: •OCl; cited from earlier work
[5] = ROS-generating system: 1O2; cited from earlier work
[6] = ROS-generating system: O2•−; cited from earlier work
[7] = ROS-generating system: H2O2; cited from earlier work
[8] = ROS-generating system: NO; cited from earlier work
[9] = ROS-generating system: ROO−; cited from earlier work
[10] = cited from earlier work
[11] = tested on: cells; details: cited from earlier work
[12] = neutral pH and extremes of pH; cited from earlier work
[13] = tested on: HeLa cells; test: ROS/RNS production in HeLa cells, triple staining DAQ/DCFDA/HE, wide-field fluorescence microscopy (Example 1); format: cell-based, Human; details: for effect of pretreatment on ROS production induced by pyocyanin: NAG 5 mM, 3C; for effect of pretreatment on green fluorescence upon combination treatment with L-arginine and pyocyanin: HeLa cells pretreated, ebselen 20 μM, 3D
Experimental: Human cervical adenocarcinoma epithelial cell line HeLa was obtained from ATCC (ATTC, Manassas, Va.) and was routinely cultured in Dulbecco's modified eagle medium with low glucose (Sigma-Aldrich, St. Louis, Mo.), supplemented with 10% fetal bovine serum heat inactivated (ATCC) and 100 U/ml penicillin, […] streptomycin (Sigma). Cell cultures were maintained in an incubator at 37° C., with 5% CO2 atmosphere. Three ROS/RNS fluorescent probes were dissolved in anhydrous DMF at the following concentrations: DAQ-20 mM (a 400× stock solution), DCFDA-5 mM (a 5000× stock solutions), DHE-5 mM (a 5000× stock solution). Anhydrous organic solvents should be used with DMF being the first choice, since DMSO is a hydroxyl radical scavenger and its presence may affect ROS/RNS production in cellular systems. Stock solutions of the dyes were aliquoted and stored at −20° C. The day before the experiment, HeLa cells were seeded on multiwell microscope slides (Gel-Line™ Brand, Portsmouth, N.H.) at a density of 2×10^4 cells per well. On the next day, the cells were loaded with 50 μM of DAQ, 1 μM of DCFDA and HE (all dilutions were made in growth medium) for 2 h, 37° C. Then the medium containing dyes was removed, the cells were briefly washed with PBS and induced with L-arginine (1 mM), pyocyanin (100 μM) or their combination for 20 min. […] Pretreated cells were induced as described earlier, overlaid with a cover slip and observed under fluorescence microscope.

[14] = tested on: HeLa cells; test: Multiplexed ROS/RNS detection in HeLa cells by flow cytometry (Example 4); format: cell-based, Human; details: for NO production (fluorescence of oxidized DAQ product in FL4): one hour treatment; for NO production (fluorescence of oxidized DAQ product in FL4) / effect of pretreatment on L-arginine-induced FL4 (NO) signal: FIG. 6 top panel
Experimental: HeLa cells were cultured as described in Example 1. The day before the experiment, the cells were seeded in 6-well tissue culture dishes at a density of 5×10^5 cells per well. On the day of the experiment, the cells were loaded with 50 μM of DAQ, 1 l-1M of DCFDA and HE (solution in culture medium) for 2 h, 37° C. and induced with L-arginine, pyocyanin or their combination, as described in Example 1. To confirm specificity and selectivity of the staining, parallel samples were treated with NAG (general ROC inhibitor) and cPTIO (general NO scavenger and NOS inhibitor). After one hour treatment, the cells were washed with PBS, trypsinized and resuspended in 0.5 ml of PBS. After resuspension, the cells were immediately analyzed by flow cytometry using FAGS Calibur instrument (or any benchtop cytometer equipped with blue and red lasers could be used). Green fluorescence of oxidized DCF was detected in the FL1 channel (excitation with 488 nm blue laser, emission detection with 530/30 BP filter), red fluorescence of DHE was detected in the FL2 channel (excitation with 488 nm blue laser, emission detection with 585/42 BP filter). Fluorescence of oxidized DAQ product was detected in the FL4 channel (excitation with 635 nm red laser, emission detection with 670 LP filter). There was substantial overlap between the oxidized dye spectra; therefore, compensation was required. For compensation purposes, singly stained samples were prepared and compensation was performed using standard protocols.

[15] = tested on: HeLa cells; test: Profiling of ROS induced in HeLa cells by different ROS inducers, DCFDA/HE staining, wide-field fluorescence microscopy (Example 2); format: cell-based, Human; details: for ROS types induced (green DCF and orange HE fluorescence): HeLa cells, inducer 1 h 37° C., 0.5 mM pyrogallol, 0.1 mM pyocyanin, 0.1 mM TBHP, FIG. 4A
Experimental: For purposes of simplifying the assay description, this example was carried out with only two indicator probes, though analogous procedures were employed as in the case where three fluorophores were utilized. Human cervical carcinoma cell line HeLa was cultured as described in Example 1. The day before the experiment, the cells were seeded in multi-well microscope slides (Gel-Line™, Portsmouth, N.H.) at a density of 2×10^4 cells per well. […] After a brief wash with PBS, the cells were stained with 1 l-1M of DGFDA and HE in culture medium for 30 min, 37° C., washed twice with PBS, overlaid with a cover slip and observed under the fluorescent microscope, using green and orange filters described in the Table 2 (FIG. 4A). To perform specific profiling of ROS/RNS, parallel samples of HeLa cells were pretreated for 30 min with 5 mM NAG (general ROS scavenger, FIG. 4B), 5 mM Tiron (specific superoxide scavenger, FIG. 4C), 10 mM pyruvate (specific peroxide scavenger, FIG. 4D). Pretreated cells were induced as described, overlaid with a cover slip and observed under fluorescent microscope using the same set of filters.

[16] = HeLa cells induced 20 min, L-arginine 1 mM, pyocyanin 100 μM or combination, FIG. 3A
[17] = HeLa cells pretreated 1 h, cPTIO 20 μM, FIG. 3B
[18] = FIG. 6 middle and bottom panels
[19] = HeLa cells pretreated with 20 μM ebselen, FIG. 3D

In the case of `CNc1ccc2oc(C[C@H]3O[C@@]4(CC[C@H]3C)O[C@H]([C@H](C)C(=O)c3ccc[nH]3)[C@H](C)C[C@H]4C)nc2c1C(=O)O` [A23187], the “time after treatment at which DAQ signal (NO) was detectable” value [1] is reported as 20 min.

For `Nc1ccc(Oc2ccc3c(-c4ccccc4C(=O)O)c4ccc(=O)cc-4oc3c2)cc1` [APF, 2-[6-(4′-amino)phenoxy-3H-xanthen-3-on-9-yl]benzoic acid], the Fluorescence increase [2] is listed as 1200, the Fluorescence increase [3] is listed as 560 and the Fluorescence increase [4] is listed as 3600. The Fluorescence increase [5] was 9, the Fluorescence increase [6] was 6 and the Fluorescence increase [7] was 1. The Fluorescence increase [8] was 1 and the Fluorescence increase [9] was 2.

In the case of `Nc1cc2ccccc2cc1N` [DAN, 2,3-diamino naphthalene], the “solubility in aqueous solution” value [10] is given as “poorly soluble” and the cellular toxicity [11] is given as “high cellular toxicity”.

In the case of `Nc1ccc2c(c1N)C(=O)c1ccccc1C2=O` [DAQ, 1,2-diaminoanthraquinone], the pH stability [12] is listed as “stable at neutral pH, as well as at extremes of pH”.

For `O=C(O)c1ccccc1-c1c2ccc(=O)cc-2oc2cc(Oc3ccc(O)cc3)ccc12` [HPF, 2-[6-(4′-hydroxyl)phenoxy-3H-xanthen-3-on-9-yl]benzoic acid], the Fluorescence increase [2] is listed as 730, the Fluorescence increase [3] is listed as 120 and the Fluorescence increase [4] is listed as 6. The Fluorescence increase [5] was 5, the Fluorescence increase [6] was 8 and the Fluorescence increase [7] was 2. The Fluorescence increase [8] was 6 and the Fluorescence increase [9] was 17.

With `N=C(N)NCCC[C@H](N)C(=O)O` [L-arginine] the “NO production (oxidized DAQ fluorescence, Cy5 filter)” value [13, 16] was “extensive NO production”, the “time after treatment at which DAQ signal (NO) was detectable” value [1] was 10 min and the “NO levels (DAQ signal)” value [1] was “high levels of NO production”. The “ROS production (FIGS. 5B and 5C)” value [1] was “No significant ROS production” and the “NO production (fluorescence of oxidized DAQ product in FL4)” value [14] was “induced NO production”.

In the case of `CC(=O)N[C@@H](CS)C(=O)O` [NAG, N-acetyl-L-cysteine], the “effect of pretreatment on ROS production induced by pyocyanin” value [13, 17] is reported as “attenuated ROS induction”, the “general levels of NO production in pretreated cells” value ([13]; HeLa cells pretreated with 5 mM NAG, FIG. 3C) is reported as “increased” and the “effect of pretreatment on production of ROS types” value ([15]; HeLa cells pretreated 30 min with 5 mM NAG, then inducers, FIG. 4B) is reported as “abolished the production of all ROS types”. The “effect of pretreatment on pyocyanin-induced ROS production (FL1 and FL2)” value [14, 18] was “blocked” and the “effect of pretreatment on L-arginine-induced FL4 (NO) signal” value [14] was “not”.

In the case of `O=C1OC2(c3cc(Cl)c(O)cc3Oc3cc(O)c(Cl)cc32)c2ccccc21` [OCFH, 2′,7′-dichlorofluorescein], the Fluorescence increase [2] is listed as 7400, the Fluorescence increase [3] is listed as 6600 and the Fluorescence increase [4] is listed as 86. For the same compound, the Fluorescence increase [5] was 26, the Fluorescence increase [6] was 67 and the Fluorescence increase [7] was 190. The Fluorescence increase [8] was 150 and the Fluorescence increase [9] was 710.

With `CC(C)(C)OO` [TBHP, tert-butyl hydroperoxide] the “ROS types induced (green DCF and orange HE fluorescence)” value (from here on “ROS types induced”) [15] was “majority of peroxide/hydroxyl radicals/peroxynitrite”.

For `O=S(=O)(O)c1cc(O)c(O)c(S(=O)(=O)O)c1` [Tiron], the “effect of pretreatment on green fluorescence in pyrogallol-treated cells” value ([15]; HeLa cells pretreated 30 min, 5 mM Tiron or 10 mM pyruvate, FIG. 4C, 4D) was “green fluorescence was increased” and the “effect of pretreatment on orange fluorescence (superoxide)” value ([15]; HeLa cells pretreated 30 min with 5 mM Tiron, then inducers, FIG. 4C) was “attenuated only orange fluorescence in all treated cells”.

For `CC1(C)N([O])C(c2ccc(C(=O)[O-])cc2)=[N+]([O-])C1(C)C.[K+]` [cPTIO, 2-(4-carboxyphenyl)-4,5-dihydro-4,4,5,5-tetramethyl-1H-imidazolyl-1-oxy-3-oxide, potassium salt], the “effect of pretreatment on ROS production induced by pyocyanin” value [13, 17] was “did not affect ROS production”, the “effect of pretreatment on NO production upon L-arginine induction” value [13, 17] was “completely abrogated NO production” and the “effect of pretreatment on green fluorescence upon combination treatment with L-arginine and pyocyanin” value ([13]; cPTIO 20 μM, FIG. 3B) was “green fluorescence decreased”. The “effect of pretreatment on L-arginine-induced FL4 (NO) signal” value [14] was “blocked”.

In the case of `O=c1c2ccccc2[se]n1-c1ccccc1` [ebselen, 2-phenyl-1,2-benzisoselenazol-3[2H]-one], the “effect of pretreatment on levels of NO or superoxide in the combination treated sample” value [13, 19] is reported as “did not restore the original levels of NO or superoxide”, the “effect of pretreatment on peroxynitrite” value [13, 19] is reported as “inactivated peroxynitrite upon its production” and the “effect of pretreatment on green fluorescence upon combination treatment with L-arginine and pyocyanin” value ([13]; cPTIO 20 μM, FIG. 3B) is reported as “decreased significantly”.

With `Cn1c2cccc(=O)c-2nc2ccccc21` [pyocyanin] the “NO production (oxidized DAQ fluorescence, Cy5 filter)” value [13, 16] was “did not affect NO production”, the “superoxide production (HE fluorescence, orange filter)” value [13, 16] was “induced superoxide production” and the “ROS types induced” value [15] was “majority of superoxide”. The “NO levels (DAQ signal)” value [1] was “did not induce any DAQ-detectable signal”, the “ROS production (FIGS. 5B and 5C)” value [1] was “early induction of ROS” and the “ROS production detected in FL1 and FL2 channels” value [14, 18] was “induced significant ROS production”. The “NO production (fluorescence of oxidized DAQ product in FL4)” value [14] was “did not induce significant NO production”.

For `Oc1cccc(O)c1O` [pyrogallol], the “ROS types induced” value [15] was “induced mostly superoxide production”.

With antimycin A the “NO levels (DAQ signal)” value [1] was “did not induce any DAQ-detectable signal” and the “ROS production (FIGS. 5B and 5C)” value [1] was “early induction of ROS”.

— patent US20150192564A1, “PROFILING REACTIVE OXYGEN, NITROGEN AND HALOGEN SPECIES” (ENZO LIFE SCIENCES, INC., C/O ENZO BIOCHEM, INC, priority 2008, published 2015)
